{"source": "patent US20150231109A1", "about": "“COMBINATIONS (CATECHINS AND METHOTREXATE) FOR USE IN THE TREATMENT OF MELANOMAS” (UNIVERSIDAD DE MURCIA, priority 2012, published 2015)", "key": {"SK-MEL-28 cells": {"tested_on": "SK-MEL-28 cells", "assay": "Apoptosis assay (cytoplasmic histone-associated DNA fragmentation ELISA), SK-MEL-28", "type": "cell-based, human", "settings": "SK-MEL-28, MTX alone", "method": "FIGS. 2A-N. MTX and TMECG combination therapy induces apoptosis via dTTP depletion and DNA-damage. A, Intracellular accumulation of TMECG-QM in SK-MEL-28 treated with TMECG or MTX/TMECG for 24 h. B, Proliferation assays performed of control or MTX/TMECG-treated (10 μM/1 μM) SK-MEL-28 cells. C, Quantification of effects of MTX/TMECG treatment on SK-MEL-28 cells (*P<0.05 with respect to TMECG-treated cells). For time course assay MTX (1 μM) and TMECG (10 μM) were used. D, dNTP quantification in melanoma cells subjected to indicated treatments (*P<0.05). […] K, quantification of γH2AX foci in SK-MEL-28 cells treated with MTX (1 μM) and/or TMECG (10 μM), or X-rays. […] N, Cell cycle profile determined by flow cytometry of SK-MEL-28 cells treated with a sublethal dose of MTX/TMECG. […]\nThe induction of apoptosis was assessed by performing cytoplasmic histone-associated DNA fragmentation using a kit from Roche Diagnostics (Barcelona, Spain). […] The amount of nucleosomes is photometrically quantified at 405 nm by the peroxidase activity retained in the immunocomplexes. Apoptosis was defined as the specific enrichment of mono- and oligonucleosomes in the cytoplasm and was calculated by dividing the absorbance of treated samples by the absorbance of untreated samples after correcting for the number of cells. […]"}, "[1]": {"assay": "Pharmacokinetic studies in mice plasma", "type": "in vivo", "settings": "mouse, ip, male C57BL/6 mice, intra-peritoneal MTX 50 mg/kg alone or with TMECG 50 mg/kg", "method": "Pharmacokinetic studies were performed in male C57BL/6 mice after intra-peritoneal injection of MTX (50 mg/kg) and/or TMECG (50 mg/kg). Animals were anesthetized with CO2, and whole blood samples (˜0.5 mL) were collected via cardiac puncture. Samples for drug quantification were collected from different animals (in triplicate) at 5, 15, and 30 min and at 1, 2, 4, and 6 hr post-dose. Whole blood samples were transferred to lithium heparin blood collection tubes, and then centrifuged at 10,000 rpm for 10 min at 4° C. After plasma deproteinization with 5% trichloroacetic acid (TCA), MTX and TMECG plasma concentrations were calculated by HPLC. Pharmacokinetic parameters were estimated using the WinNonlin software package (WinNonlin Professional version 5.1., Pharsight Corporation, CA). WinNonlin model 200 was used for the non-compartmental analysis of the concentration-time data. The area under the plasma concentration-time curve (AUClast) from time 0 to the last point (tlast) with measurable concentration (Clast) was estimated using a linear trapezoidal approximation (AUClast). The elimination half-life (t1/2) was calculated as ln2/kel, where kel (elimination rate constant) was estimated using least squares regression analysis of the concentration-time data obtained during the terminal log-linear elimination phase. The maximum plasma concentrations (Cmax) were estimated directly from the data, with tmax being defined as the time of the first occurrence of Cmax."}}, "data": [{"smiles": "CN(Cc1cnc2nc(N)nc(N)c2n1)c1ccc(C(=O)N[C@@H](CCC(=O)O)C(=O)O)cc1", "note": "[MTX, methotrexate]", "values": [{"measurement": "induction of apoptosis", "setting": "SK-MEL-28 cells", "value": "did not induce apoptosis"}, {"measurement": "AUC", "setting": "[1]; read-out: MTX parameters AUC", "value": 32000, "unit": "ng·h/mL"}, {"measurement": "Cmax", "setting": "[1]; read-out: MTX parameters Cmax", "value": 24600, "unit": "ng/mL"}, {"measurement": "Tmax", "setting": "[1]; read-out: MTX parameters Tmax", "value": 0.5, "unit": "h"}, {"measurement": "half-life", "setting": "[1]; read-out: MTX parameters t1/2 (converted)", "value": 1.77, "unit": "h"}]}]}
